The values below come from ChEMBL document CHEMBL5729410, “Urea-substituted aromatic ring-linked dioxinoquinoline compounds, preparation method and uses thereof” (2022).

Assay [1] concerns the target Proto-oncogene tyrosine-protein kinase receptor Ret (Homo sapiens, UniProt P07949). Put plainly: Assay of Small Molecular Compounds for Inhibiting the Activity of RET Kinase: The assay is based on the LANCE TR-FRET technology of Perkin Elmer Inc., and the assay method is as follows:1.
In assay [2] the target is Vascular endothelial growth factor receptor 2 (Homo sapiens, UniProt P35968). The experiment in a line: Assay of Small Molecular Compounds for Inhibiting the Activity of VEGFR-2 Kinase: The assay is based on the LANCE TR-FRET technology of Perkin Elmer Inc., and the assay method is as follows:1.
Chain of Vascular endothelial growth factor receptor 2 (P35968 whole entry): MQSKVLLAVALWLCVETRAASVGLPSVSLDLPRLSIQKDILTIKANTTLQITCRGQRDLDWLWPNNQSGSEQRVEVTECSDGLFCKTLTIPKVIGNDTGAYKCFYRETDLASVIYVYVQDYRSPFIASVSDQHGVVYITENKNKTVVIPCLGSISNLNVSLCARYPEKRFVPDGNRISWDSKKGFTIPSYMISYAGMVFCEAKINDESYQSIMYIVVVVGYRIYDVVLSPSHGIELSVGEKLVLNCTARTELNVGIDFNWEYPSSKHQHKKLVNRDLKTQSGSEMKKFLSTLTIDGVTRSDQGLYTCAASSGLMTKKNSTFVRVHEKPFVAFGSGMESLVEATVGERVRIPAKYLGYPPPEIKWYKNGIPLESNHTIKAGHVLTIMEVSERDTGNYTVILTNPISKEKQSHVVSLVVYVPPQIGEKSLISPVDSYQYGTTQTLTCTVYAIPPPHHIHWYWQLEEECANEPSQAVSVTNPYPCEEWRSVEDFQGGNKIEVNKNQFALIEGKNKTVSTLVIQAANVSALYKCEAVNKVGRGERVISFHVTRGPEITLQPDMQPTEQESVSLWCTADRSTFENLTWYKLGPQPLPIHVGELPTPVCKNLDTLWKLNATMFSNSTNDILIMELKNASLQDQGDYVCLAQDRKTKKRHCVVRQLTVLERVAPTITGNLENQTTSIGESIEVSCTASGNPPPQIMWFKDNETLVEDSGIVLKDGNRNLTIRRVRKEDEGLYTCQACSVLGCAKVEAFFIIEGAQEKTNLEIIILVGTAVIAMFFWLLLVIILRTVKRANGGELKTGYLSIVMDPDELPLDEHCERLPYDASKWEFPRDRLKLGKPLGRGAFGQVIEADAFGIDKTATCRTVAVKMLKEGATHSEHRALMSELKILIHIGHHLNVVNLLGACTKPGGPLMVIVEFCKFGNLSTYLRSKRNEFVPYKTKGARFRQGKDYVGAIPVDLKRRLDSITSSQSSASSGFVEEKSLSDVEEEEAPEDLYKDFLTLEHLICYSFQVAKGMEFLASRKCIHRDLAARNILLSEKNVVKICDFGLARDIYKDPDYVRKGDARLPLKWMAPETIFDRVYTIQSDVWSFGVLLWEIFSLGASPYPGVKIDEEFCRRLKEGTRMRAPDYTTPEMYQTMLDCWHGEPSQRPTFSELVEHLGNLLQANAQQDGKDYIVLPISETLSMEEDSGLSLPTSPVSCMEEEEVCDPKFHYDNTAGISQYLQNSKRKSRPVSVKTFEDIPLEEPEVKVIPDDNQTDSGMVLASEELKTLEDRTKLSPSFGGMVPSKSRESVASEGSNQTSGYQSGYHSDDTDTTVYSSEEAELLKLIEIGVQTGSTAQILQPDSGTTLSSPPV

Chain of Proto-oncogene tyrosine-protein kinase receptor Ret (P07949 whole entry): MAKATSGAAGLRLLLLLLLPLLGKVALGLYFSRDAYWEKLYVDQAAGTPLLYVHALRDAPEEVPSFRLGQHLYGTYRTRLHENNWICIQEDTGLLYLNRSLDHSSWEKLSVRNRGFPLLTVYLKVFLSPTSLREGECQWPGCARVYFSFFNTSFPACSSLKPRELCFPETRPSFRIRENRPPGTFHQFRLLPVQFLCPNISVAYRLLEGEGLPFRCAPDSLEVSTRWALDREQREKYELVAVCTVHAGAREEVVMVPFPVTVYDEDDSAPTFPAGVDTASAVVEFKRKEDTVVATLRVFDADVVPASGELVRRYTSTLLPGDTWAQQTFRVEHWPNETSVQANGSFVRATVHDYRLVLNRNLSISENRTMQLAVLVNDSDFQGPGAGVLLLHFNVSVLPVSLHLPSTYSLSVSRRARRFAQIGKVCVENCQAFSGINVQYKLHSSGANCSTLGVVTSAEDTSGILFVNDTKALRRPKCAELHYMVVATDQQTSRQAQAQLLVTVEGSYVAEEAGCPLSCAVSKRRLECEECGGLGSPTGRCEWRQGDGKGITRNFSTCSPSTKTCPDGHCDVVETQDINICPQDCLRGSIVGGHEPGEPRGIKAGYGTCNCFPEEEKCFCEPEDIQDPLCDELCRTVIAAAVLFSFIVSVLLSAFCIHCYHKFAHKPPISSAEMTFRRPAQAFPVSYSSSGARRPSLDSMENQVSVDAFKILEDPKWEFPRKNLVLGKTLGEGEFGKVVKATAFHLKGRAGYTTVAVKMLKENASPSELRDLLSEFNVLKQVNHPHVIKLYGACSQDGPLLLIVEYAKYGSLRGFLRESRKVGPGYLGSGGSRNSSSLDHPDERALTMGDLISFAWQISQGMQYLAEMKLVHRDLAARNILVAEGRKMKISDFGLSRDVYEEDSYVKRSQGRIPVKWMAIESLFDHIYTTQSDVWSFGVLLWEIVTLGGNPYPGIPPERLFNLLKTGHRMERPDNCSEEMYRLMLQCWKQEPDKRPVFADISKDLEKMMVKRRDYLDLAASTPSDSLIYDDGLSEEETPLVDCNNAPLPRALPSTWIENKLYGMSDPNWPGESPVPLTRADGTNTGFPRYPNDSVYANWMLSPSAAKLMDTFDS

On to `O=C(Nc1ccc(Oc2ccnc3cc(OC4CCOCC4)c4c(c23)OCCO4)cc1Cl)NC1CC1`, for which the 50% inhibitory concentration (IC50) in assay [1] is below 50 nM.

On to `CN(CCCOc1cc2nccc(Oc3ccc(NC(=O)Nc4ccc(Cl)c(C(F)(F)F)c4)cc3)c2c2c1OCCO2)C1CCC1`, for which the IC50 in assay [1] and in assay [2] was below 50 nM throughout.

As for `O=C(Nc1ccc(Oc2ccnc3cc(OCCCN4CCOCC4)c4c(c23)OCCO4)cc1F)NC1CC1`, the 50% inhibitory concentration (IC50) in assay [1] and in assay [2] was below 50 nM throughout.
